Test results from publication PMC4001449, “Thienoquinolines as Novel Disruptors of the PKCε/RACK2 Protein–Protein Interaction” (Journal of Medicinal Chemistry, 2014).

What was measured:
PKCε/RACK2 interaction = target: T1, PKCε/RACK2 interaction (Homo sapiens, UniProt P35606); test: PKCε/RACK2 in vitro binding assay (ELISA-based); conditions: 25 μM solution, Figure 2A
T1 sequence (P35606 1-906): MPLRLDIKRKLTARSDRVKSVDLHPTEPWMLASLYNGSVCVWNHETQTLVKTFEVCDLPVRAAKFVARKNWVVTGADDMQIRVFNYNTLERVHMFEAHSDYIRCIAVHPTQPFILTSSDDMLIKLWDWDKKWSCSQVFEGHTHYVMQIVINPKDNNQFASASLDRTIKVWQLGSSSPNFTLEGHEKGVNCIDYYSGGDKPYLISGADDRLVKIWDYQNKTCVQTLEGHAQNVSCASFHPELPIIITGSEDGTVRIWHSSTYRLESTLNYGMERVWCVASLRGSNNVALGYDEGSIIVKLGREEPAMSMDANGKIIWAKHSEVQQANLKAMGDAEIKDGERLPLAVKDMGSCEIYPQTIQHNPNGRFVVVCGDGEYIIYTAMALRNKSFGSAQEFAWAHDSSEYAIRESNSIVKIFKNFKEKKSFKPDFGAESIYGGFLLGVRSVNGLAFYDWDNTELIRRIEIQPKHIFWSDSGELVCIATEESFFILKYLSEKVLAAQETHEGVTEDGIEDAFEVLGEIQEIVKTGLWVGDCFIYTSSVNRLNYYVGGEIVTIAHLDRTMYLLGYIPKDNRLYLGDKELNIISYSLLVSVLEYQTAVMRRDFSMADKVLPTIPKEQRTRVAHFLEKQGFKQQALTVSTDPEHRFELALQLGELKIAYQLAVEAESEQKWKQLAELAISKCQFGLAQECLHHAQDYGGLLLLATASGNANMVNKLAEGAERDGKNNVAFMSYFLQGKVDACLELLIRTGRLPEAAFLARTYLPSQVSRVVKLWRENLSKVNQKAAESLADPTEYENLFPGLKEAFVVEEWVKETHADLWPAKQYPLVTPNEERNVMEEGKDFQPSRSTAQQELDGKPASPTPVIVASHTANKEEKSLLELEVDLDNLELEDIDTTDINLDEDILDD
Protocol: Recombinant RACK2 tagged with maltose-binding protein (RACK2-MBP) was purified on columns with amylose resin (New England Biolabs, Ipswich, MA) as described by the manufacturer. The recombinant protein was analyzed by Coomassie Blue staining and Western blotting after SDS–PAGE. Aliquots were stored in liquid nitrogen. The interaction between PKCε and RACK2 was measured using an ELISA-based assay. The 96-well EIA/RIA high binding plates (Costar) were coated with 100 ng of recombinant PKCε (ProQinase, Freiburg, Germany) in buffer A (20 mM Tris-HCl/100 mM NaCl, pH 7.5) at 4 °C on a shaker with gentle agitation overnight. The plate was washed twice with 225 μL/well buffer A. After blocking of unspecific binding sites with 225 μL of sterile-filtered 3% bovine serum albumin (BSA; Sigma-Aldrich, St. Louis, MO) in buffer A at room temperature for 3 h, the plate was washed twice with 225 μL of this buffer. PKCε was left untreated or activated by addition of 60 μg/mL phosphatidylserine (Sigma-Aldrich) and 100 nM TPA (Sigma-Aldrich) in a volume of 50 μL of buffer A for 10 min at 30 °C. […] Color development was measured on a plate reader at a wavelength of 420 nm.

PKCδ = PKCδ translocation, cell fractionation and Western blotting in PC-3 cells; format: cell-based, human; conditions: TPA, Figure 3
Protocol: For PKCε translocation PC-3 cells were starved for 16 h, treated with 8 for 30 min, stimulated with 50 nM TPA for 5 min, lysed, and fractionated with a CNMCS/CNM compartmental protein extraction kit (BioChain Institute, Newark, CA). Western blotting was performed by a standard procedure as described by Garczarczyk et al.[27],[40] Cytosolic and membrane fractions were loaded onto SDS gels and transferred to an Immobilon membrane (Millipore, Billerica, MA). The membranes were incubated with rabbit polyclonal IgG antibodies for detection of PKCε (Santa Cruz Biotechnology; dilution 1:2000), for PKCε phosphoSer^729 (Millipore; dilution 1:1000), for PKCδ (Santa Cruz Biotechnology; dilution 1:1000), and for MARCKS phosphoSer152/156 (Cell Signaling Technology, Danvers, MA; dilution 1:1000). For the loading control tubulin (Santa Cruz Biotechnology; dilution 1:1000), and as marker for the membrane fraction, an IGFI-βR rabbit polyclonal IgG antibody (Santa Cruz; dilution 1:1000) and, as secondary antibodies, peroxidase-conjugated AffiniPure goat anti-rabbit IgG (Jackson ImmunoResearch Laboratories, West Grove, PA; dilution 1:20000) were used. GAPDH (Chemicon, Millipore, Billerica, MA; dilution 1:10000) was used as loading control for the cytosolic fraction. […]

RSK2 = RSK2 (Homo sapiens, UniProt P51812); test: Kinase profiling (Dundee), RSK2; format: biochemical; conditions: 25 μM solution
Chain of RSK2 (P51812 whole entry, species assumed): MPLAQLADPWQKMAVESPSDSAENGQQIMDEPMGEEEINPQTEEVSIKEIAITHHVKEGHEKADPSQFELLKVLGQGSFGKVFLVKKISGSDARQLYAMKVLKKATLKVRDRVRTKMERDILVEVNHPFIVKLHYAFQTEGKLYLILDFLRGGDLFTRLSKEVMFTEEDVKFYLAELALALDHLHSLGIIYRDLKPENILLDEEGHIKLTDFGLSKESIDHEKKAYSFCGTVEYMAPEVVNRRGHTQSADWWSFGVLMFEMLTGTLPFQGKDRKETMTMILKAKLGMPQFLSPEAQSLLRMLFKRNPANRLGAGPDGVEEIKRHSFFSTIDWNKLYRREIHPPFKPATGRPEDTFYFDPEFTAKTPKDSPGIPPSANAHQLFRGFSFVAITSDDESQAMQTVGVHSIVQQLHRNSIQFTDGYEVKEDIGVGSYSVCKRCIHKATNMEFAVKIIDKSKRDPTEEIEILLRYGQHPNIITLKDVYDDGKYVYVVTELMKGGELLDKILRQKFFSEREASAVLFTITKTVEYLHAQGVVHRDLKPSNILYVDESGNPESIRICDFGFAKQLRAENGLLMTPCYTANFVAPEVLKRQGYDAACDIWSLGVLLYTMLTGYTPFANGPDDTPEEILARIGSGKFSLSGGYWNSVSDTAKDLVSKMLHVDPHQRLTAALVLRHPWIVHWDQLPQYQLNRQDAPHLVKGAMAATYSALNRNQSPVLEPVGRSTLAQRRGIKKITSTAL

BTK = BTK (Homo sapiens, UniProt Q06187); test: Kinase profiling (Dundee), BTK; format: biochemical; conditions: 25 μM solution
Chain of BTK (Q06187 whole entry, species assumed): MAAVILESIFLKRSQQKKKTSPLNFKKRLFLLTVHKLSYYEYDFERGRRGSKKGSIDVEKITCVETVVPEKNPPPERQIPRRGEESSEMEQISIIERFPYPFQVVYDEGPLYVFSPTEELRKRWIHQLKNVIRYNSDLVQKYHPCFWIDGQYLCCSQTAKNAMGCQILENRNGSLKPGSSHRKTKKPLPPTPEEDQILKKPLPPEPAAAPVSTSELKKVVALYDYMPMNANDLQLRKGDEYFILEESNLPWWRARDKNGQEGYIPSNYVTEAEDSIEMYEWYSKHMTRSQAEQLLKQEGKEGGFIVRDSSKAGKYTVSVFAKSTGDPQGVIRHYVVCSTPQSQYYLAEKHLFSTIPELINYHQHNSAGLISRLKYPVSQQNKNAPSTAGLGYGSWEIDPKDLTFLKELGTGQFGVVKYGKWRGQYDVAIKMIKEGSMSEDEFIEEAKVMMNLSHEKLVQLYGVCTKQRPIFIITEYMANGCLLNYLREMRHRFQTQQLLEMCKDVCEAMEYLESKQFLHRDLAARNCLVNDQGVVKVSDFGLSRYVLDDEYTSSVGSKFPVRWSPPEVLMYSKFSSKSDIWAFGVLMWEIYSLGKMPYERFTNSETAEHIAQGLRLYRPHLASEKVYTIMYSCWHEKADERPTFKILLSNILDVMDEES

- PKCε/RACK2 interaction, % of untreated controls (PKCε/RACK2 interaction): approximately 10 % of untreated controls
- RSK2 activity, % of control (RSK2): 27 % of control
- BTK activity, % of control (BTK): 42 % of control
Compound: CC(=O)c1cccc(NC(=O)c2sc3nc4cc5c(cc4cc3c2N)OCCO5)c1 [Compound 8, N-(3-acetylphenyl)-9-amino-2,3-dihydro-1,4-dioxino[2,3-g]thieno[2,3-b]quinoline-8-carboxamide]
- PKCδ in the membrane (PKCδ): did not decrease
